In US9352074B2, “Antimicrobial examination gloves” (priority 2013, dated 2016):

Tests used:
Staphylococcus aureus = experiment: Zones of inhibition analysis of nitrile rubber film swatches on seeded agar; type: cell-based; settings: for antibacterial properties of polymer film (in words): incorporated into the nitrile rubber latex dip bath; for sides of the film exhibiting antibacterial activity (in words): PHMB in coagulation layer, triclosan in nitrile rubber
Description: Tests were carried out in order to assess which combination of biocidal agents were compatible with the glove manufacturing process and gave the best antimicrobial performance. Small rectangles of nitrile rubber latex were prepared by dipping clean microscope slides into warm coagulant solution, withdrawing them and drying them in an oven at 110° C. The slides were allowed to cool before dipping into the nitrile rubber latex dispersion. They were withdrawn, allowed to drain, and placed in an oven at 110° C. After cooling the layer of cured nitrile rubber was carefully removed from the microscope slide and sent for testing to determine their antimicrobial properties. Active ingredients were incorporated into the coagulant and nitrile polymer latex dispersion as appropriate.
The qualitative measure of their antibacterial performance was carried out by zones of inhibition analysis. The procedure used was for each sample to be assayed against Staphylococcus aureus, a bacterium commonly found on the skin of humans, by comparing their zones of inhibition on an agar preparation.
Seeded agar plates were prepared by adding 0.1 ml of an overnight broth culture into a clean, sterile petri dish, adding approximately 20 ml of an agar preparation that had been sterilised and cooled to 45° C. before use. The selective agar used was Tryptone Soy Agar. The challenge organism was mixed into the agar by gentle swirling to provide a homogeneous suspension. The plates were allowed to set for approximately one hour in a cool dry place.
Swatches of the polymer glove material were cut to approximately 2 cm square and placed on the seeded agar. The petri dishes were then placed in an incubator overnight at 37° C. Migration of the chemicals toxic to the challenge organisms creates a zone around the edge of the swatch where growth of the challenge organism is inhibited. The relative distance of the zone inhibition from the edge of the swatch for each organism gives an indication of the antibacterial efficacy of the products.

[1] = cited from earlier work
[2] = Experiment 3, 0.1% added to coagulant solution
[3] = Experiment 3, 1.0% added to coagulant solution
[4] = Experiment 3, added to the calcium containing coagulant solution, agent on one side of the film
[5] = Experiment 2, 0.1% added to nitrile rubber
[6] = Experiment 2, 0.1% in nitrile rubber, compared with control sample 12B/088
[7] = Experiment 4, incorporated into the coagulation layer / coagulant solution

Molecule	ZONE OF INHIBITION (Staphylococcus aureus; [2]) [mm]	ZONE OF INHIBITION (Staphylococcus aureus; [3]) [mm]	antibacterial performance (in words) (Staphylococcus aureus; [4])	antibacterial properties of polymer film (in words) (Staphylococcus aureus; Experiment 1)	ZONE OF INHIBITION (Staphylococcus aureus; [5]) [mm]	antibacterial effectiveness (in words) (Staphylococcus aureus; [6])	sides of the film exhibiting antibacterial activity (in words) (Staphylococcus aureus; Experiment 4)	antibacterial performance (in words) (Staphylococcus aureus; [7])	further results
[H]/N=C(\N/C(=N/[H])NCCCCCCNC(=N)NC(=N)Nc1ccc(Cl)cc1)Nc1ccc(Cl)cc1 [Chlorhexidine]	11	18	effective antibacterial performance						
Cn1sc(Cl)cc1=O [Methylchloroisothiazolinone]									antibacterial effectiveness (in words) (Staphylococcus aureus; Experiment 3, 0.5%): effective antibacterial agent; ZONE OF INHIBITION (Staphylococcus aureus; Experiment 3, 0.5% added to nitrile rubber): 15 mm
O=c1[nH]sc2ccccc12 [Proxel (BIT), 1,2-Benzisothiazol-3((2H)-one]				exhibited antibacterial properties	15	significantly more effective			ZONE OF INHIBITION (Staphylococcus aureus; Experiment 1, 0.15% added to nitrile rubber): 9 mm
Oc1cc(Cl)ccc1Oc1ccc(Cl)cc1Cl [Triclosan]	10		exhibited antibacterial performance but was not as effective as when it was incorporated into the nitrile rubber layer	exhibited antibacterial properties	20	significantly more effective	both sides of the film exhibit antibacterial activity		ZONE OF INHIBITION (Staphylococcus aureus; Experiment 1, 0.05% added to nitrile rubber): 15 mm; ZONE OF INHIBITION (Staphylococcus aureus; Experiment 2, 0.25% added to nitrile rubber): 18 mm; ZONE OF INHIBITION (Staphylococcus aureus; Experiment 3, 0.05% added to nitrile rubber): 12 mm; antibacterial effectiveness (in words) (Staphylococcus aureus; Experiment 3, 0.05% in the nitrile rubber film (run 12C/064)): effective; ZONE OF INHIBITION (Staphylococcus aureus; Experiment 3, 0.1% added to nitrile rubber): 17 mm; ZONE OF INHIBITION (Staphylococcus aureus; Experiment 3, 0.5% added to coagulant solution): 12 mm; ZONE OF INHIBITION (Staphylococcus aureus; Experiment 4, 0.1% added to nitrile rubber): 16 mm; antibacterial performance (in words) (Staphylococcus aureus; Experiment 4, incorporated into the nitrile rubber): good antibacterial performance; solubility in water [1]: 0.0012 g per liter
Benzalkonium chloride [BTC 50E]		30	effective antibacterial performance					good results	ZONE OF INHIBITION (Staphylococcus aureus; Experiment 3, 0.22% added to coagulant solution): 14 mm; ZONE OF INHIBITION (Staphylococcus aureus; Experiment 4, 0.25% added to coagulant solution): 8 mm
Poly(hexamethylene biguanide) [PHMB]							only one side of the polymer film exhibits antibacterial performance	good results	ZONE OF INHIBITION (Staphylococcus aureus; Experiment 4, 0.3% added to coagulant solution, face down as normal): 16 mm; ZONE OF INHIBITION (Staphylococcus aureus; Experiment 4, 0.3% added to coagulant solution, film placed face up on the agar plate, biocide not on the side on the agar gel): 5 mm
